Test results published in patent US11541055B2, “Inhibitors of human immunodeficiency virus replication” (ViiV Healthcare UK (No. 5) LIMITED, priority 2018, dated 2023).

What was measured:
[1] = Compound cytotoxicity, XTT-based colorimetric assay; assay type: cell-based; conditions: human; uninfected MT2 cells, day 4, XTT
Outline: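 Run under the antiviral-assay protocol but without virus. Viability was read on day 4 and CC50 values were derived from the readout.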

[2] = tested on: recombinant NL4-3 virus (Renilla luciferase) in MT-2 cells; assay: HIV cell culture assay (antiviral activity, luciferase readout); assay type: cell-based; conditions: Renilla, NL43
Outline: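 Antiviral EC50 was derived via the median effect equation from luciferase signal. The signal came from MT-2 cultures infected for 4–5 days with a nef-deleted, Renilla luciferase-expressing NL4-3 reporter virus (made in 293T cells) in the presence of compound dilutions.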

Compound	CC50 at 4 days [1]	EC50 [2]
Cn1nc(NS(C)(=O)=O)c2c(Cl)ccc(-n3c([C@H](Cc4cc(F)cc(F)c4)NC(=O)Cn4nc(C(F)F)c5c4C(F)(F)[C@@H]4C[C@H]54)nc4cc(-c5ccccc5C(F)(F)F)ccc4c3=O)c21 (atropisomer, axis not shown; (P)) [Example 24, N—((S)-1-((3P)-3-(4-chloro-1-methyl-3-(methylsulfonamido)-1H-indazol-7-yl)-4-oxo-7-(2-(trifluoromethyl)phenyl)-3,4-dihydroquinazolin-2-yl)-2-(3,5-difluorophenyl)ethyl)-2-((3bS,4aR)-3-(difluoromethyl)-5,5-difluoro-3b,4,4a,5-tetrahydro-1H-cyclopropa[3,4]cyclopenta[1,2-c]pyrazol-1-yl)acetamide]	> 500 nM	0.84 nM
Cn1nc(NS(C)(=O)=O)c2c(Cl)ccc(-n3c([C@H](Cc4cc(F)cc(F)c4)NC(=O)Cn4nc(C(F)F)c5c4C(F)(F)[C@@H]4C[C@H]54)nc4cc(-c5ccccc5OC(F)F)ccc4c3=O)c21 (atropisomer, axis not shown; (P)) [Example 25, N—((S)-1-((3P)-3-(4-chloro-1-methyl-3-(methylsulfonamido)-1H-indazol-7-yl)-7-(2-(difluoromethoxy)phenyl)-4-oxo-3,4-dihydroquinazolin-2-yl)-2-(3,5-difluorophenyl)ethyl)-2-((3bS,4aR)-3-(difluoromethyl)-5,5-difluoro-3b,4,4a,5-tetrahydro-1H-cyclopropa[3,4]cyclopenta[1,2-c]pyrazol-1-yl)acetamide]	> 500 nM	0.85 nM
Cc1ncc(-c2ccc3c(=O)n(-c4ccc(Cl)c5c(NS(C)(=O)=O)nn(C)c45)c([C@H](Cc4cc(F)cc(F)c4)NC(=O)Cn4nc(C(F)F)c5c4C(F)(F)[C@@H]4C[C@H]54)nc3c2)s1 (atropisomer, axis not shown; (P)) [Example 26, N—((S)-1-((3P)-3-(4-chloro-1-methyl-3-(methylsulfonamido)-1H-indazol-7-yl)-7-(2-methylthiazol-5-yl)-4-oxo-3,4-dihydroquinazolin-2-yl)-2-(3,5-difluorophenyl)ethyl)-2-((3bS,4aR)-3-(difluoromethyl)-5,5-difluoro-3b,4,4a,5-tetrahydro-1H-cyclopropa[3,4]cyclopenta[1,2-c]pyrazol-1-yl)acetamide]	> 500 nM	0.11 nM
CN(c1ccccc1-c1ccc2c(=O)n(-c3ccc(Cl)c4c(NS(C)(=O)=O)nn(C)c34)c([C@H](Cc3cc(F)cc(F)c3)NC(=O)Cn3nc(C(F)F)c4c3C(F)(F)[C@@H]3C[C@H]43)nc2c1)S(C)(=O)=O (atropisomer, axis not shown; (P)) [Example 27, N—((S)-1-((3P)-3-(4-chloro-1-methyl-3-(methylsulfonamido)-1H-indazol-7-yl)-7-(2-(N-methylmethylsulfonamido)phenyl)-4-oxo-3,4-dihydroquinazolin-2-yl)-2-(3,5-difluorophenyl)ethyl)-2-((3bS,4aR)-3-(difluoromethyl)-5,5-difluoro-3b,4,4a,5-tetrahydro-1H-cyclopropa[3,4]cyclopenta[1,2-c]pyrazol-1-yl)acetamide]	> 500 nM	0.49 nM
Cn1nc(NS(C)(=O)=O)c2c(Cl)ccc(-n3c([C@H](Cc4cc(F)cc(F)c4)NC(=O)Cn4nc(C(F)F)c5c4C(F)(F)[C@@H]4C[C@H]54)nc4cc(-c5ncccc5C(F)(F)F)ccc4c3=O)c21 (atropisomer, axis not shown; (P)) [Example 30, N—((S)-1-((3P)-3-(4-chloro-1-methyl-3-(methylsulfonamido)-1H-indazol-7-yl)-4-oxo-7-(3-(trifluoromethyl)pyridin-2-yl)-3,4-dihydroquinazolin-2-yl)-2-(3,5-difluorophenyl)ethyl)-2-((3bS,4aR)-3-(difluoromethyl)-5,5-difluoro-3b,4,4a,5-tetrahydro-1H-cyclopropa[3,4]cyclopenta[1,2-c]pyrazol-1-yl)acetamide]	> 500 nM	0.22 nM
Cn1nc(NS(C)(=O)=O)c2c(Cl)ccc(-n3c([C@H](Cc4cc(F)cc(F)c4)NC(=O)Cn4nc(C(F)F)c5c4C(F)(F)[C@@H]4C[C@H]54)nc4cc(-c5ccnnc5)ccc4c3=O)c21 (atropisomer, axis not shown; (P)) [Example 31, N—((S)-1-((3P)-3-(4-chloro-1-methyl-3-(methylsulfonamido)-1H-indazol-7-yl)-4-oxo-7-(pyridazin-4-yl)-3,4-dihydroquinazolin-2-yl)-2-(3,5-difluorophenyl)ethyl)-2-((3bS,4aR)-3-(difluoromethyl)-5,5-difluoro-3b,4,4a,5-tetrahydro-1H-cyclopropa[3,4]cyclopenta[1,2-c]pyrazol-1-yl)acetamide]	> 500 nM	0.29 nM
Cn1nc(NS(C)(=O)=O)c2c(Cl)ccc(-n3c([C@H](Cc4cc(F)cc(F)c4)NC(=O)Cn4nc(C(F)F)c5c4C(F)(F)[C@@H]4C[C@H]54)nc4cc(-c5cccc(S(=O)(=O)C(C)(C)C)c5)ccc4c3=O)c21 (atropisomer, axis not shown; (P)) [Example 33, N—((S)-1-(7-(3-(tert-butylsulfonyl)phenyl)-(3P)-3-(4-chloro-1-methyl-3-(methylsulfonamido)-1H-indazol-7-yl)-4-oxo-3,4-dihydroquinazolin-2-yl)-2-(3,5-difluorophenyl)ethyl)-2-((3bS,4aR)-3-(difluoromethyl)-5,5-difluoro-3b,4,4a,5-tetrahydro-1H-cyclopropa[3,4]cyclopenta[1,2-c]pyrazol-1-yl)acetamide]	> 500 nM	0.12 nM
COc1cnc(-c2ccc3c(=O)n(-c4ccc(Cl)c5c(NS(C)(=O)=O)nn(C)c45)c([C@H](Cc4cc(F)cc(F)c4)NC(=O)Cn4nc(C(F)F)c5c4C(F)(F)[C@@H]4C[C@H]54)nc3c2)nc1 (atropisomer, axis not shown; (P)) [Example 34, N—((S)-1-((3P)-3-(4-chloro-1-methyl-3-(methylsulfonamido)-1H-indazol-7-yl)-7-(5-methoxypyrimidin-2-yl)-4-oxo-3,4-dihydroquinazolin-2-yl)-2-(3,5-difluorophenyl)ethyl)-2-((3bS,4aR)-3-(difluoromethyl)-5,5-difluoro-3b,4,4a,5-tetrahydro-1H-cyclopropa[3,4]cyclopenta[1,2-c]pyrazol-1-yl)acetamide]	> 500 nM	0.058 nM
Cn1nc(NS(C)(=O)=O)c2c(Cl)ccc(-n3c([C@H](Cc4cc(F)cc(F)c4)NC(=O)Cn4nc(C(F)F)c5c4C(F)(F)[C@@H]4C[C@H]54)nc4cc(-c5cccc(C(C)(C)C)n5)ccc4c3=O)c21 (atropisomer, axis not shown; (P)) [Example 35, N—((S)-1-(7-(6-(tert-butyl)pyridin-2-yl)-(3P)-3-(4-chloro-1-methyl-3-(methylsulfonamido)-1H-indazol-7-yl)-4-oxo-3,4-dihydroquinazolin-2-yl)-2-(3,5-difluorophenyl)ethyl)-2-((3bS,4aR)-3-(difluoromethyl)-5,5-difluoro-3b,4,4a,5-tetrahydro-1H-cyclopropa[3,4]cyclopenta[1,2-c]pyrazol-1-yl)acetamide]	> 500 nM	0.97 nM
CCc1cc(C)nc(-c2ccc3c(=O)n(-c4ccc(Cl)c5c(NS(C)(=O)=O)nn(C)c45)c([C@H](Cc4cc(F)cc(F)c4)NC(=O)Cn4nc(C(F)F)c5c4C(F)(F)[C@@H]4C[C@H]54)nc3c2)n1 (atropisomer, axis not shown; (P)) [Example 36, N—((S)-1-((3P)-3-(4-chloro-1-methyl-3-(methylsulfonamido)-1H-indazol-7-yl)-7-(4-ethyl-6-methylpyrimidin-2-yl)-4-oxo-3,4-dihydroquinazolin-2-yl)-2-(3,5-difluorophenyl)ethyl)-2-((3bS,4aR)-3-(difluoromethyl)-5,5-difluoro-3b,4,4a,5-tetrahydro-1H-cyclopropa[3,4]cyclopenta[1,2-c]pyrazol-1-yl)acetamide]	> 500 nM	0.087 nM
Cc1cc(C(C)C)nc(-c2ccc3c(=O)n(-c4ccc(Cl)c5c(NS(C)(=O)=O)nn(C)c45)c([C@H](Cc4cc(F)cc(F)c4)NC(=O)Cn4nc(C(F)F)c5c4C(F)(F)[C@@H]4C[C@H]54)nc3c2)n1 (atropisomer, axis not shown; (P)) [Example 37, N—((S)-1-((3P)-3-(4-chloro-1-methyl-3-(methylsulfonamido)-1H-indazol-7-yl)-7-(4-isopropyl-6-methylpyrimidin-2-yl)-4-oxo-3,4-dihydroquinazolin-2-yl)-2-(3,5-difluorophenyl)ethyl)-2-((3bS,4aR)-3-(difluoromethyl)-5,5-difluoro-3b,4,4a,5-tetrahydro-1H-cyclopropa[3,4]cyclopenta[1,2-c]pyrazol-1-yl)acetamide]	> 500 nM	0.16 nM
CCc1cc(CC)nc(-c2ccc3c(=O)n(-c4ccc(Cl)c5c(NS(C)(=O)=O)nn(C)c45)c([C@H](Cc4cc(F)cc(F)c4)NC(=O)Cn4nc(C(F)F)c5c4C(F)(F)[C@@H]4C[C@H]54)nc3c2)n1 (atropisomer, axis not shown; (P)) [Example 38, N—((S)-1-((3P)-3-(4-chloro-1-methyl-3-(methylsulfonamido)-1H-indazol-7-yl)-7-(4,6-diethylpyrimidin-2-yl)-4-oxo-3,4-dihydroquinazolin-2-yl)-2-(3,5-difluorophenyl)ethyl)-2-((3bS,4aR)-3-(difluoromethyl)-5,5-difluoro-3b,4,4a,5-tetrahydro-1H-cyclopropa[3,4]cyclopenta[1,2-c]pyrazol-1-yl)acetamide]	> 500 nM	0.21 nM
